Measurements as given in US9000025B2, “Autotaxin inhibitors and uses thereof” (Amira Pharmaceuticals, Inc., priority 2010, dated 2015).

Target: T1, autotaxin (ATX) (Homo sapiens, UniProt Q13822)
T1 construct: conditioned medium from the human melanoma cell line, MDA-MB-4355, which endogenously expresses autotaxin; host or cells: MDA-MB-435S human melanoma cells; serum-free conditioned medium, concentrated 20-fold
Test: Native Autotaxin Choline Release Assay
Type: biochemical
Conditions: autotaxin in conditioned medium from human melanoma cell line; choline released from LPC; read-out: MDA-MB-435S Assay IC50
Protocol: ATX activity is determined by measuring the amount of choline realeased from the substrate, lyosphophatidylcholine (LPC). […] After reaching confluency, the cells are washed twice with phosphate-buffered saline (PBS) then cultured for 48 hours in phenol-red free, serum-free DMEM containing sodium pyruvate. […] 100 μl of a color mix which contains 4.5 mM 4-aminoantipyrine, 2.7 mM N-ethyl-N-(2-hydroxy-3-sulfopropyl)-m-toluidine, 21 units/ml horseradish peroxidase and 3 units/ml choline oxidase in 50 mM Tris, pH 8, 4.5 mM MgCl2 is added and the incubation continued at 37° C. for 10 minutes before reading the absorbance at 555 nm. The concentration of released choline in the sample is determined from a choline standard curve and is equal to the concentration of LPA produced.

| Compound | IC50 [nM] |
| --- | --- |
| Cc1[nH]c2ccccc2c1Sc1cccc(CC(=O)O)c1 [Compound 1-1, [3-(2-Methyl-1H-indol-3-ylsulfanyl)-phenyl]-acetic acid] | > 1000 |
| COc1ccc2c(Sc3cccc(CC(=O)O)c3)c(C)[nH]c2c1 [Compound 1-3, [3-(6-Methoxy-2-methyl-1H-indol-3-ylsulfanyl)-phenyl]-acetic acid] | > 1000 |
| Cc1c(Sc2cccc(CC(=O)O)c2)c2ccccc2n1C [Compound 1-4, [3-(1,2-Dimethyl-1H-indol-3-ylsulfanyl)-phenyl]-acetic acid] | > 1000 |
| Cc1c(Sc2cccc(CC(=O)O)c2)c2ccc(Cl)cc2n1CC(C)C [Compound 1-7, [3-(6-Chloro-1-isobutyl-2-methyl-1H-indol-3-ylsulfanyl)-phenyl]-acetic acid] | > 1000 |
| Cc1c(Sc2cccc(C(=O)O)c2)c2ccc(Br)cc2n1Cc1ccccc1 [Compound 1-10, 3-(1-Benzyl-6-bromo-2-methyl-1H-indol-3-ylsulfanyl)-benzoic acid] | 300 to 1000 |
| Cc1c(Sc2cccc(C(=O)O)c2)c2ccc(-c3cccnc3)cc2n1Cc1ccccc1 [Compound 1-12, 3-(1-Benzyl-2-methyl-6-pyridin-3-yl-1H-indol-3-ylsulfanyl)-benzoic acid] | > 1000 |
| Cc1c(Sc2cccc(CC(=O)O)c2)c2ccc(Cl)cc2n1Cc1ccccc1 [Compound 1-14, [3-(1-Benzyl-6-chloro-2-methyl-1H-indol-3-ylsulfanyl)-phenyl]-acetic acid] | > 1000 |
| Cc1c(Sc2cccc(C(=O)O)c2)c2ccc(Cl)cc2n1Cc1ccccc1 [Compound 1-15, 3-(1-Benzyl-6-chloro-2-methyl-1H-indol-3-ylsulfanyl)-benzoic acid] | 300 to 1000 |
| Cc1c(Sc2cccc(C(=O)O)c2)c2ccc(Cl)cc2n1Cc1ccc(F)cc1 [Compound 1-18, 3-[6-Chloro-1-(4-fluoro-benzyl)-2-methyl-1H-indol-3-ylsulfanyl]-benzoic acid] | > 1000 |
| Cc1c(Sc2cccc(C(=O)O)c2)c2ccc(Cl)cc2n1C(C)c1ccccc1 (centres unmarked) [Compound 1-19, 3-[6-Chloro-2-methyl-1-(1-phenyl-ethyl)-1H-indol-3-ylsulfanyl]-benzoic acid] | > 1000 |
| Cc1c(Sc2cccc(C(=O)O)c2)c2ccc(Cl)cc2n1Cc1ccncc1 [Compound 1-23, 3-(6-Chloro-2-methyl-1-pyridin-4-ylmethyl-1H-indol-3-ylsulfanyl)-benzoic acid] | < 300 |
| Cc1c(Sc2cccc(C(=O)O)c2)c2ccc(Cl)cc2n1Cc1ccccn1 [Compound 1-24, 3-(6-Chloro-2-methyl-1-pyridin-2-ylmethyl-1H-indol-3-ylsulfanyl)-benzoic acid] | 300 to 1000 |
| Cc1c(Sc2cccc(C(=O)O)c2)c2ccc(Cl)cc2n1-c1cccc(-c2ccccc2)c1 [Compound 1-28, 3-(1-Biphenyl-3-yl-6-chloro-2-methyl-1H-indol-3-ylsulfanyl)-benzoic acid] | 300 to 1000 |
| Cc1c(Sc2cccc(C(=O)O)c2)c2ccc(Cl)cc2n1-c1cccnc1 [Compound 1-30, 3-(6-Chloro-2-methyl-1-pyridin-3-yl-1H-indol-3-ylsulfanyl)-benzoic acid] | < 300 |
| Cc1c(Sc2cccc(C(=O)O)c2)c2ccc(Cl)cc2n1-c1ccc(C(F)(F)F)nc1 [Compound 1-32, 3-[6-Chloro-2-methyl-1-(6-trifluoromethyl-pyridin-3-yl)-1H-indol-3-ylsulfanyl]-benzoic acid] | 300 to 1000 |

Other lines, results leading:

| IC50 [nM] | Compound |
| --- | --- |
| > 1000 | Cc1[nH]c2cc(F)ccc2c1Sc1cccc(CC(=O)O)c1 [Compound 1-2, [3-(6-Fluoro-2-methyl-1H-indol-3-ylsulfanyl)-phenyl]-acetic acid] |
| > 1000 | Cc1c(Sc2cccc(CC(=O)O)c2)c2ccc(Cl)cc2n1C [Compound 1-5, [3-(6-Chloro-1,2-dimethyl-1H-indol-3-ylsulfanyl)-phenyl]-acetic acid] |
| > 1000 | Cc1c(Sc2cccc(C(=O)O)c2)c2ccc(Cl)cc2n1C [Compound 1-6, 3-(6-Chloro-1,2-dimethyl-1H-indol-3-ylsulfanyl)-benzoic acid] |
| 300 to 1000 | COCCn1c(C)c(Sc2cccc(CC(=O)O)c2)c2ccc(Cl)cc21 [Compound 1-8, {3-[6-Chloro-1-(2-methoxy-ethyl)-2-methyl-1H-indol-3-ylsulfanyl]-phenyl}-acetic acid] |
| > 1000 | Cc1c(Sc2cccc(CC(=O)O)c2)c2ccccc2n1Cc1ccccc1 [Compound 1-9, [3-(1-Benzyl-2-methyl-1H-indol-3-ylsulfanyl)-phenyl]-acetic acid] |
| > 1000 | Cc1c(Sc2cccc(C(=O)O)c2)c2ccc(-c3ccccc3)cc2n1Cc1ccccc1 [Compound 1-11, 3-(1-Benzyl-2-methyl-6-phenyl-1H-indol-3-ylsulfanyl)-benzoic acid] |
| > 1000 | Cc1c(Sc2cccc(C(=O)O)c2)c2ccc(Cc3ccccc3)cc2n1Cc1ccccc1 [Compound 1-13, 3-(1,6-Dibenzyl-2-methyl-1H-indol-3-ylsulfanyl)-benzoic acid] |
| > 1000 | Cc1c(Oc2cccc(CC(=O)O)c2)c2ccc(Cl)cc2n1Cc1ccccc1 [Compound 1-16, [3-(1-Benzyl-6-chloro-2-methyl-1H-indol-3-yloxy)-phenyl]-acetic acid] |
| > 1000 | Cc1c(Sc2cccc(CCC(=O)O)c2)c2ccc(Cl)cc2n1Cc1ccccc1 [Compound 1-17, 3-[3-(1-Benzyl-6-chloro-2-methyl-1H-indol-3-ylsulfanyl)-phenyl]-propionic acid] |
| > 1000 | Cc1c(Sc2cccc(C(=O)O)c2)c2ccc(Cl)cc2n1Cc1ccc2ccccc2c1 [Compound 1-20, 3-(6-Chloro-2-methyl-1-naphthalen-2-ylmethyl-1H-indol-3-ylsulfanyl)-benzoic acid] |
| < 300 | Cc1c(Sc2cccc(C(=O)O)c2)c2ccc(Cl)cc2n1Cc1cccnc1 [Compound 1-21, 3-(6-Chloro-2-methyl-1-pyridin-3-ylmethyl-1H-indol-3-ylsulfanyl)-benzoic acid] |
| > 1000 | Cc1c(Sc2cccc(C(=O)O)c2)c2ccc(Cl)cc2n1Cc1ccc(C(F)(F)F)nc1 [Compound 1-22, 3-[6-Chloro-2-methyl-1-(6-trifluoromethyl-pyridin-3-ylmethyl)-1H-indol-3-ylsulfanyl]-benzoic acid] |
| < 300 | COc1c(C)cnc(Cn2c(C)c(Sc3cccc(C(=O)O)c3)c3ccc(Cl)cc32)c1C [Compound 1-25, 3-[6-Chloro-1-(4-methoxy-3,5-dimethyl-pyridin-2-ylmethyl)-2-methyl-1H-indol-3-ylsulfanyl]-benzoic acid] |
| 300 to 1000 | Cc1c(Sc2cccc(C(=O)O)c2)c2ccc(Cl)cc2n1-c1ccc(-c2ccccc2)cc1 [Compound 1-27, 3-(1-Biphenyl-4-yl-6-chloro-2-methyl-1H-indol-3-ylsulfanyl)-benzoic acid] |
| < 300 | Cc1c(Sc2cccc(C(=O)O)c2)c2ccc(Cl)cc2n1-c1cccc(Cl)c1 [Compound 1-29, 3-[6-Chloro-1-(3-chloro-phenyl)-2-methyl-1H-indol-3-ylsulfanyl]-benzoic acid] |
| 300 to 1000 | Cc1c(Sc2cccc(C(=O)O)c2)c2ccc(Cl)cc2n1-c1ccccn1 [Compound 1-31, 3-(6-Chloro-2-methyl-1-pyridin-2-yl-1H-indol-3-ylsulfanyl)-benzoic acid] |
| < 300 | COc1ccc(-n2c(C)c(Sc3cccc(C(=O)O)c3)c3ccc(Cl)cc32)cn1 [Compound 1-33, 3-[6-Chloro-1-(6-methoxy-pyridin-3-yl)-2-methyl-1H-indol-3-ylsulfanyl]-benzoic acid] |
